Entries after “also recorded” stand apart in the source; their conditions may differ. Read-outs that look alike come from different tables or passages of the source.
How the values were obtained:
[1] = tested on: Giardia duodenalis trophozoites (BAH2c2 strain); experiment: Resazurin reduction assay on Giardia trophozoites in vitro; type: cell-based; settings: for Selectivity ratio: higher ratios = more selective
Text: Biology Materials and Methods:
Metronidazole was sourced from sigma.
Chemicals used for the culture of Giardia in vitro were sourced as follows: glucose and L-cysteine (ACROS organics, Thermo Fisher Scientific, Scoresby, Vic), Ammonium Iron (III) citrate, ascorbic Acid (Sigma -aldrich, Castle Hill, NSW), potassium dihydrogen orthophosphate (UNIVAR, Ingleburn, NSW), bovine bi le (Fluka analytical (BD)), di-potassium hydrogen orthophosphate (Fronine laboratory supplies, Riverstone, NSW).
G. duodenalis (BAH2c2 strain) was cultivated according to the method of Clark and Diamond in Keister’s modified TYI-S-33 medium, supplemented with heat inactivated foetal bovine serum (Hyclone™, Thermo Scientific, Scoresby, Vic) at 37°C in plastic 9 mL screw-capped test tubes (nunc). Subcultures were performed once a confluent monolayer was observed, approximately 2 – 3 times per week (Clark and Diamond, 2002).
(§1) CaCo-2 cells, a human cell line derived from a primary colonic tumour, were sourced from Cellbank Australia and were maintained in MEM supplemented with 2 mM glutamine, 1% non-essential amino acids and 10% FCS (Thermo Scientific). Cells were passaged when confluent, approximately 1-2 times per week. Vero cells were also obtained from Cellbank Australia and maintained as above.
In vitro drug efficacy assays
Resazurin Reduction Assay […]
tested to identify the IC50 and minimum lethal concentration (MLC). For all assays the media of confluent cultures was replaced with fresh media and the cultures were placed on ice for 40 minutes to detach trophozoites.
Trophozoites were enumerated using a haemocytometer and 50 000 trophozoites were added to each test well of a 96 well plate. Either single concentrations (final concentration 25 μM) for the screening assay or tripling dilutions […]
wells. The assays were repeated in triplicate with metronidazole and a DMSO (vehicle only) used as controls. Plates were incubated under anaerobic conditions (anaerogen sachet, Thermofisher scientific) for 5 or 24 hours at 37°C following which the viability of treated cells was determined using the resazurin reduction assay (Benere et al., 2007). The media was removed and replaced with an equal volume of warm PBS. Resazurin (Sigma) was then added at 10% of the total volume of the wells. Plates were further incubated for colour development and absorbance read at 570 nm and 630 nm. Resazurin reduction was calculated according to the following formula: […]
(§2) CaCo-2 or Vero cells, maintained as outlined above, were collected via trypsinisation and enumerated using trypan blue and a haemocytometer. Select analogues were prepared in DMSO so that the final concentration in the assay was 25 μM. 1 X 10^5 cells/ml were added to each assay with the appropriate drug dilution. Assays were completed in 96 well plates and incubated for 24 hours at 37°C, 5% CO2 in a humidified incubator. After incubation cells were […]
(§3) washed with warm PBS before the addition of 10% resazurin in PBS. Assays were incubated to allow colour development and absorbance read at 630 and 570nm. Activity of the analogues against mammalian cells was calculated according to the formula stated above.

In vivo toxicity in mice = settings: per os, 100 mg/kg per day for 3 days, 100 mg/kg/day
Giardia duodenalis = experiment: Washout / growth recovery of Giardia after 5 h exposure; type: cell-based; settings: 5 h treatment, 48 h post removal
CaCo-2 cells = settings: human, 24 h, 25 μM
Experimental: Biology Materials and Methods: […]
as §1
In vitro drug efficacy assays […]
2007). The media was removed and replaced with an equal volume of warm PBS. Resazurin (Sigma) was then added at 10% of the total volume of the wells. Plates were further incubated for colour development and absorbance read at 570 nm and 630 nm. Resazurin reduction was calculated according to the following formula: […]
as §2, §3

| IC50 ([1]; Giardia duodenalis, 24 h, read-out: Antigiardial activity IC50 (24 h)) [µM] | MIC ([1]; Giardia duodenalis, 24 h, minimum inhibitory concentration, read-out: Antigiardial activity MIC (24 h)) [µM] | Structure (SMILES) | IC50 ([1]; Giardia duodenalis, 5 h, read-out: Antigiardial activity IC50 (5 h)) [µM] | time to marked impact on Giardia trophozoites ([1]; data not shown) [h] | Selectivity ratio ([1]; toxicity tested at 25 μM vs 5 h IC50, Table 4) | Tolerability in mice (adverse effects) (In vivo toxicity in mice) | Giardia regrowth after compound removal (Giardia duodenalis) | Toxicity (% growth control) (CaCo-2 cells) [%] | Selectivity ratio ([1]; toxicity tested at 25 μM vs 24 h IC50, Tables 1-3) |
| --- | --- | --- | --- | --- | --- | --- | --- | --- | --- |
|  |  | COc1cc(Br)c(C=NNC(=N)NN=Cc2cc(OC)c(OC)cc2Br)cc1OC.Cl [Compound 41, 2,2′‐bis[(2‐bromo‐4,5‐dimethoxyphenyl)methylene]carbonimidic dihydrazide hydrochloride] | 0.2 | 1 to 2 | >125 | well tolerated; also recorded: no adverse effects | no Giardia regrowth; also recorded: did not result in Giardia regrowth |  |  |
| 0.9 | 2.8 | Cl.N=C(N/N=C/c1ccc(Cl)cc1)N/N=C/c1ccc(Cl)cc1 [Robenidine 4, robenidine, reference compound] |  |  |  |  | did not result in Giardia regrowth | 40.7±22.6 | >27.8 |

Reference: publication PMC9828538, “Antigiardial Activity of Novel Guanidine Compounds” (Chemmedchem, 2022)
